Experimental data: PubChem BioAssay (NCI)
“And” between values parts separate entries of the source, which are not always exact repeats. Equal entries are not always repeated.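 Five compound concentrations were applied to cells in 96-well plates for 48 hours; endpoints were derived by simple linear interpolation of the resulting dose-response curve. GI50 marks 50% less growth. TGI denotes the concentration required for complete inhibition of growth.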

Experiments:
Experiment in all cases: NCI-60 cell line screen, 48 h
ACHN renal = test system: ACHN renal
A549 NSCLC = test system: A549 NSCLC
PC-3 prostate = test system: PC-3 prostate
HCC-2998 colon = test system: HCC-2998 colon
HS 578T breast = test system: HS 578T breast
DU-145 prostate = test system: DU-145 prostate
RPMI-8226 leukemia = test system: RPMI-8226 leukemia
IGROV1 ovarian = test system: IGROV1 ovarian
KM12 colon = test system: KM12 colon
NCI-H522 lung = test system: NCI-H522 lung

Structure (SMILES)	GI50 (ACHN renal) [µM]	TGI (ACHN renal) [µM]	GI50 (A549 NSCLC) [µM]	GI50 (PC-3 prostate) [µM]	TGI (PC-3 prostate) [µM]	GI50 (HCC-2998 colon)	TGI (HCC-2998 colon)	GI50 (HS 578T breast) [µM]	TGI (HS 578T breast) [µM]	GI50 (DU-145 prostate)	TGI (DU-145 prostate)	GI50 (RPMI-8226 leukemia) [µM]	TGI (RPMI-8226 leukemia) [µM]	GI50 (IGROV1 ovarian) [µM]	TGI (IGROV1 ovarian)	GI50 (KM12 colon)	TGI (KM12 colon)	GI50 (NCI-H522 lung) [µM]	TGI (NCI-H522 lung) [µM]	TGI (A549 NSCLC) [µM]
C[C@]12CC[C@@H]3c4ccc(OC(=O)N(CCCl)CCCl)cc4CC[C@H]3[C@@H]1CC[C@@H]2O	3.71	> 68.5	2.46	3.02	> 40.2	1.56 µM	5.16 µM	1.89	10.8	2.53 µM	8.63 µM	1.62	5.42	4.7	33.4 µM and 3.65 µM	3.1 µM	9.77 µM	2.53	15.2	
C/C=C(\C)C(=O)NC1=CC[C@@]2(C)C(=CCC3C2CC[C@@]2(C)C3CC[C@@H]2C(C)N(C)C)C1=O (some centres undefined)	8.03	> 47	4.99	2.5	17.7	4.01 µM	15.6 µM	4.65	23.2	7.06 µM	> 59.5 µM	1.91	9.38	5.17	21 µM	2.85 µM	13.7 µM	7.79	24	23.4
C[C@@]1(C(=O)O)CCC[C@]2(C)C1CC[C@@]13CC(=O)[C@@](CO)(CC[C@]12O)C3 (some centres undefined)	> 100	> 100	> 100	> 100	> 100	50.7 µM	> 100 µM	> 100	> 100	> 100 µM	> 100 µM	> 100	> 100	> 100	> 100 µM	> 100 µM	> 100 µM	> 100	> 100	> 100
CC[C@@H]1c2c(C#N)ncn2-c2cnc(Nc3ccc(C(=O)NC4CCN(C5CCN(CC6CC6)CC5)CC4)cc3OC)nc2N1C1CCCC1	0.625	1.93	0.0401	0.0438	2.08	0.04 µM and 0.0308 µM	1.09 µM and 0.162 µM	0.069	1.78	0.0235 µM and 0.0353 µM	0.072 µM and 0.246 µM	0.083	2.97	0.0358	1.36 µM	0.0363 µM and 0.0338 µM	1.07 µM and 1.05 µM	0.023	0.126	1.12
CSC(=Nc1nnc(-c2ccc([N+](=O)[O-])cc2)s1)SC		> 100			> 100		> 100 µM		> 81.8		> 100 µM		> 100		> 91.6 µM		> 100 µM		99.2	> 100
O=C1C(Cl)=C(Nc2cccc(F)c2)C(=O)N1Cc1ccc(Cl)cc1	2.54	15.2	1.73	0.526	4.53	0.935 µM	4.88 µM	2.86	9.28	2.67 µM	8.44 µM	0.502	14.2	2.92	16.9 µM	2.66 µM	19.1 µM	3.09	13.3	16.9
NS(=O)(=O)c1ccc(-n2nc(-c3ccc(Cl)cc3)cc2-c2cc(O)ccc2O)cc1	13.4	26.2	12.2	8.37	23.8	17.2 µM	31.2 µM	34.2	78.9	18.5 µM	35.8 µM	3.15	11.7	25.4	> 100 µM	13.4 µM	32.6 µM	2.58	6.71	30.4
CCCCON(OC(=O)c1ccc2ccccc2c1)C(=O)c1ccccc1	> 100	> 100	> 100	> 100	> 100	> 100 µM	> 100 µM	> 100	> 100	> 100 µM	> 100 µM	74.2	> 100	44.1	> 100 µM	> 100 µM	> 100 µM	63	> 100	> 100
O=C(CCCCCCNC(=O)c1cnc(N(c2ccccc2)c2ccccc2)nc1)NO	3.99	23.2	6.12	4.87	> 100	3.38 µM	12.5 µM	2.54	> 100	3.82 µM	> 100 µM	1.29	> 100	3.2	16.6 µM	3.26 µM	21.7 µM	0.786	5.66	> 92.7
COc1cccc(N2CCN(CC(=O)N3CCN(c4nnc(-c5ccc(Cl)cc5)c(-c5ccc(Cl)cc5)n4)CC3)CC2)c1	10.8	32.1	38.1	16.6	> 100	> 100 µM	> 100 µM	22	85.7	> 100 µM	> 100 µM	4.63	> 100	11.1	84.7 µM	14.3 µM	> 100 µM	19.8	> 100	> 100
O=c1[nH]c(=O)c2cn[nH]c2[nH]1	> 100	> 100	> 100	> 100	> 100	> 100 µM	> 100 µM	> 100	> 100	> 100 µM	> 100 µM	> 100	> 100	> 100	> 100 µM	> 100 µM	> 100 µM	> 100	> 100	> 100
O=C(c1ccccc1)c1ccccc1-c1ccccc1	9.46	> 100	4.87	3.67	> 100	6.14 µM	34.5 µM	1.58	10.2	3.36 µM	38.2 µM	4.91	52	3.32	> 100 µM	1.16 µM	43.3 µM	0.74	4.06	> 100
